The values that follow come from patent publication US9255100B2 (BAYER INTELLECTUAL PROPERTY GMBH, priority 2010, dated 2016).

As usually defined, the pIC50 is the IC50 on a negative log10 scale, so that one unit is a factor of ten. One may read the IC50 as the concentration needed to halve the response being measured.

Molecules are shown by their SMILES. pIC50: −log10 of the molar value. Some results are limits rather than exact numbers.

One test concerns the target T1, N-terminally GST-tagged human full length recombinant Mps-1 kinase (Homo sapiens, UniProt P33981).
T1 construct: N-terminally GST-tagged human full length recombinant Mps-1 kinase; purchased Invitrogen, Karslruhe, Germany PV4071
T1 sequence (P33981 1-857): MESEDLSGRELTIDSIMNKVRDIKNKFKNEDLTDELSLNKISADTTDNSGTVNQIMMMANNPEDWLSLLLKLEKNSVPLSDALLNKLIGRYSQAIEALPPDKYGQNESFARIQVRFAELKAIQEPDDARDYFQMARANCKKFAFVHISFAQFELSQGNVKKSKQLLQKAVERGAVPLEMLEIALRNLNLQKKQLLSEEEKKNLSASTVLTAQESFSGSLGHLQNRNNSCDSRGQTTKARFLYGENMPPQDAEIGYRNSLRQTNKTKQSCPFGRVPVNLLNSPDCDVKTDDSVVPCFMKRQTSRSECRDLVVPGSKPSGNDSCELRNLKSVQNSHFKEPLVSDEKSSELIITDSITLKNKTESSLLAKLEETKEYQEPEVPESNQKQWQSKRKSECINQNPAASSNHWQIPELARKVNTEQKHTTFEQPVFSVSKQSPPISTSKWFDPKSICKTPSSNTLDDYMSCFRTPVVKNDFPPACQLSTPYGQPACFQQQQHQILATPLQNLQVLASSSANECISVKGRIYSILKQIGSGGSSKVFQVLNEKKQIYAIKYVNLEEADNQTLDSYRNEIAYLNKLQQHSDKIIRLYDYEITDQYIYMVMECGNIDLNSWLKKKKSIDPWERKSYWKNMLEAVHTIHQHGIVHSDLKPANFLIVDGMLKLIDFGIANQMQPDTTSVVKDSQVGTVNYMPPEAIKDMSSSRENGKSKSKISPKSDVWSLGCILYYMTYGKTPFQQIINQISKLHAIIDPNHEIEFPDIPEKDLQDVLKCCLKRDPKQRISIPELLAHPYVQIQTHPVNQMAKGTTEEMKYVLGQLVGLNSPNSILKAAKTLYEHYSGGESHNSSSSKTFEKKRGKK
Put plainly: Mps-1 kinase assay (TR-FRET). In kind it is biochemical. As to conditions: 10 μM ATP, 1 μM peptide substrate, 60 min at 22° C., read-out: Mps1 IC50. The protocol: The human kinase Mps-1 phosphorylates a biotinylated substrate peptide. Detection of the phosphorylated product is achieved by time-resolved fluorescence resonance energy transfer (TR-FRET) from Europium-labelled anti-phospho-Serine/Threonine antibody as donor to streptavidin labelled with cross-linked allophycocyanin (SA-XLent) as acceptor. Compounds are tested for their inhibition of the kinase activity.
N-terminally GST-tagged human full length recombinant Mps-1 kinase (purchased from Invitrogen, Karslruhe, Germany, cat. no PV4071) was used. As substrate for the kinase reaction a biotinylated peptide of the amino-acid sequence […] (C-terminus in amide form, purchased from Biosynthan GmbH, Berlin) was used.
The concentration of Mps-1 in the assay was adjusted to the activity of the enzyme lot and was chosen appropriate to have the assay in the linear range, typical enzyme concentrations were in the range of about 1 nM (final conc. in the 5 μl assay volume).
The resulting mixture was incubated 1 h at 22° C. to allow the binding of the phosphorylated peptide to the anti-phospho(Ser/Thr)-Europium-antibody. Subsequently the amount of phosphorylated substrate was evaluated by measurement of the resonance energy transfer from the Europium-labelled anti-phospho(Ser/Thr) antibody to the Streptavidin-XLent.
For orientation: In TR-FRET formats the signal depends on donor and acceptor labels being close together.
For `Cc1cc(-c2cnc3c(NCC4CC[S+]([O-])CC4)cc(Oc4cccc(F)c4)nn23)ccc1C(=O)NC1CC1` (mixture of isomers) [Example 298B, N-cyclopropyl-4-[6-(3-fluorophenoxy)-8-({[(cis/trans)-1-oxidotetrahydro-2H-thiopyran-4-yl]methyl}amino)imidazo[1,2-b]pyridazin-3-yl]-2-methylbenzamide], the pIC50 was 10.00.

Staying with this test, now noted: Mps1 IC50 [nM], 10 μM ATP, 1 μM peptide substrate, 60 min at 22° C.
Take `Cc1ccc(Sc2cc(NCCC(F)(F)F)c3ncc(-c4ccc(C(=O)NC5CC5)c(C)c4)n3n2)c(F)c1` [Example 362, N-cyclopropyl-4-{6-[(2-fluoro-4-methylphenyl)sulfanyl]-8-[(3,3,3-trifluoropropyl)amino]imidazo[1,2-b]pyridazin-3-yl}-2-methylbenzamide]: the half-inhibitory concentration (IC50) came to 0.2 nM.

With `Cc1cc(-c2cnc3c(NCC(C)(C)O)cc(Sc4cccc(F)c4)nn23)ccc1C(=O)NC1CC1` [Example 89, N-cyclopropyl-4-{6-[(3-fluorophenyl)sulfanyl]-8-[(2-hydroxy-2-methylpropyl)amino]imidazo[1,2-b]pyridazin-3-yl}-2-methylbenzamide], the half-maximal inhibitory concentration (IC50) was found to be 0.2 nM.

Consider `Cc1cc(-c2cnc3c(NCCC(F)(F)F)cc(S(=O)(=O)c4ccccc4)nn23)ccc1C(=O)NC1CC1` [Example 212, N-cyclopropyl-2-methyl-4-{6-(phenylsulfonyl)-8-[(3,3,3-trifluoropropyl)amino]imidazo[1,2-b]pyridazin-3-yl}benzamide], for which the half-maximal inhibitory concentration (IC50) was under 1 nM.

For `CNC(=O)c1ccc(-c2cnc3c(NCCOC)cc(Oc4ccc(OC)cc4F)nn23)cc1C` [Example 584, 4-{6-(2-fluoro-4-methoxyphenoxy)-8-[(2-methoxyethyl)a-mino]imidazo[1,2-b]pyridazin-3-yl}-N,2-dimethylbenzamide], the IC50 stood at 2.3 nM.

Turning to `CC(C)CNc1cc(-c2cncc(C#N)c2)nn2c(-c3ccc(C(=O)NC4CC4)cc3)cnc12` [Example 147, 4-{6-(5-Cyanopyridin-3-yl)-8-[(2-methylpropyl)amino]imidazo[1,2-b]pyridazin-3-yl}-N-cyclopropylbenzamide], the IC50 is 2.2 nM.

For `CNc1ccccc1Oc1cc(NCCC(F)(F)F)c2ncc(-c3ccc(C(=O)NC4CC4)c(C)c3)n2n1` [Example 389, N-cyclopropyl-2-methyl-4-{6-[2-(methylamino)phenoxy]-8-[(3,3,3-trifluoropropyl)amino]imidazo[1,2-b]pyridazin-3-yl}benzamide], the half-maximal inhibitory concentration (IC50) came out at 0.1 nM.

For `Cc1cc(-c2cnc3c(NC[C@H]4CCCO4)cc(-c4ccnn4C)nn23)ccc1C(=O)NC1CC1` [Example 33, N-cyclopropyl-2-methyl-4-[6-(1-methyl-1H-pyrazol-5-yl)-8-{[(2R)-tetrahydrofuran-2-ylmethyl]amino}imidazo[1,2-b]pyridazin-3-yl]benzamide], the IC50 came to 1.5 nM.

Regarding `Cc1cc(-c2cnc3c(NCC4CCSCC4)cc(Oc4ccc(Cl)cc4)nn23)ccc1C(=O)NC1CC1` [Example 292, 4-{6-(4-chlorophenoxy)-8-[(tetrahydro-2H-thiopyran-4-ylmethyl)amino]imidazo[1,2-b]pyridazin-3-yl}-N-cyclopropyl-2-methylbenzamide], the IC50 was 0.5 nM.

As for `Cc1cc(-c2cnc3c(NCC(C)(C)O)cc(-c4ccnn4C)nn23)ccc1C(=O)NC1CC1` [Example 21, N-cyclopropyl-4-{8-[(2-hydroxy-2-methylpropyl)amino]-6-(1-methyl-1H-pyrazol-5-yl)imidazo[1,2-b]pyridazin-3-yl}-2-methylbenzamide], the IC50 was 3.7 nM.

For the molecule `Cc1cc(-c2cnc3c(NCCN(C)C)cc(Oc4cccnc4)nn23)ccc1C(=O)NC1CC1` [Example 524, N-cyclopropyl-4-[8-{[2-(dimethylamino)ethyl]amino}-6-(pyridin-3-yloxy)imidazo [1,2-b]pyridazin-3-yl]-2-methylbenzamide], the IC50 was determined as 2.3 nM.

Regarding `CC(C)CNc1cc(-c2ccc3c(c2)OCO3)nn2c(-c3ccc(C(=O)NC4CC4)cc3)cnc12` [Example 136, 4-{6-(1,3-Benzodioxol-5-yl)-8-[(2-methylpropyl)amino]imidazo[1,2-b]pyridazin-3-yl}-N-cyclopropylbenzamide], the IC50 is 4 nM.

As to `CC(C)CNc1cc(-c2ccc(C(=O)NC3CC3)cc2)nn2c(-c3ccc(C(=O)NC4CC4)cc3)cnc12` [Example 116, 4,4′-{8-[(2-Methylpropyl)amino]imidazo[1,2-b]pyridazine-3,6-diyl} bis(N-cyclopropylbenzamide)], the half-inhibitory concentration (IC50) amounted to 4 nM.

As for `COc1cccc(Nc2cc(NCC(C)(C)O)c3ncc(-c4ccc(C(=O)NC5CC5)c(C)c4)n3n2)c1` [Example 403, N-cyclopropyl-4-{8-[(2-hydroxy-2-methylpropyl)amino]-6-[(3-methoxyphenyl)amino]imidazo[1,2-b]pyridazin-3-yl}-2-methylbenzamide], the concentration for half-maximal inhibition (IC50) was 1 nM.

As for `CC(C)(O)CNc1cc(-c2ccc(F)cc2)nn2c(-c3ccc(C(=S)NC4CC4)cc3)cnc12` [Example 32, N-cyclopropyl-4-{6-(4-fluorophenyl)-8-[(2-hydroxy-2-methylpropyl)amino]imidazo[1,2-b]pyridazin-3-yl}benzenecarbothioamide], the IC50 was determined as 4.3 nM.

For `Cc1cc(-c2cnc3c(NCCC(F)(F)F)cc(Oc4ccccc4F)nn23)ccc1C(=O)NC1CC1` [Example 473, N-cyclopropyl-4-{6-(2-fluorophenoxy)-8-[(3,3,3-trifluoropropyl)amino]imidazo[1,2-b]pyridazin-3-yl}-2-methyl-benzamide], the half-inhibitory concentration (IC50) came to 0.4 nM.

Turning to `Cc1cc(-c2cnc3c(NCC(C)(C)O)cc(Oc4cncnc4)nn23)ccc1C(=O)NC1CC1` [Example 265, N-cyclopropyl-4-{8-[(2-hydroxy-2-methylpropyl)amino]-6-(pyrimidin-5-yloxy)imidazo[1,2-b]pyridazin-3-yl}-2-methylbenzamide], the IC50 is 0.9 nM.

Consider `CC(C)CNc1cc(-c2ccccc2F)nn2c(-c3ccc(C(=O)NC4CC4)cc3)cnc12` [Example 132, N-cyclopropyl-4-{6-(2-fluorophenyl)-8-[(2-methylpropyl)amino]imidazo[1,2-b]pyridazin-3-yl}benzamide], for which the IC50 worked out at 1.5 nM.

As for `Cc1cc(-c2cnc3c(NCCC(F)(F)F)cc(Sc4cnccn4)nn23)ccc1C(=O)NC1CC1` [Example 420, N-cyclopropyl-2-methyl-4-{6-(pyrazin-2-ylsulfanyl)-8-[(3,3,3-trifluoropropyl)amino]imidazo[1,2-b]pyridazin-3-yl}benzamide], the half-maximal inhibitory concentration (IC50) came to 2.8 nM.

With `CC(C)(O)CNc1cc(-c2ccc(F)cc2)nn2c(-c3ccc(C(=O)NC4CC4)cc3)cnc12` [Example 19, N-cyclopropyl-4-{6-(4-fluorophenyl)-8-[(2-hydroxy-2-methylpropyl)amino]imidazo[1,2-b]pyridazin-3-yl}benzamide], the concentration for half-maximal inhibition (IC50) was determined as 1.6 nM.

Turning to `Cc1cc(-c2cnc3c(NCCC(F)(F)F)cc(Sc4ccccc4F)nn23)ccc1C(=O)NC1CC1` [Example 268, N-cyclopropyl-4-{6-[(2-fluorophenyl)sulfanyl]-8-[(3,3,3-trifluoropropyl)amino]imidazo[1,2-b]pyridazin-3-yl}-2-methylbenzamide], the IC50 stood at 0.2 nM.

With `Cc1cc(-c2cnc3c(NCC(C)(C)O)cc(Nc4ccc(Cl)cc4F)nn23)ccc1C(=O)NC1CC1` [Example 348, 4-{6-[(4-chloro-2-fluorophenyl)amino]-8-[(2-hydroxy-2-methylpropyl)amino]imidazo[1,2-b]pyridazin-3-yl}-N-cyclopropyl-2-methylbenzamide], the 50% inhibitory concentration (IC50) is 1.5 nM.

Turning to `CNC(=O)c1ccc(-c2cnc3c(NCCOC)cc(Oc4cccc(F)c4F)nn23)cc1C` [Example 581, 4-{6-(2,3-difluoro-phenoxy)-8-[(2-methoxyethyl)a-mino]imidazo[1,2-b]pyridazin-3-yl}-N,2-dimethylbenzamide], the concentration for half-maximal inhibition (IC50) is under 1 nM.
